{
  "source": "patent US12397059B2",
  "about": "“Compounds and methods for the treatment and prevention of fibrotic disease states and cancer” (Purdue Research Foundation, priority 2019, dated 2025)",
  "key": {"[1]": {"tested_on": "BM-induced experimental pulmonary fibrosis in mice", "procedure": "Studies were also performed to determine if macrophages in pulmonary fibrotic lungs might be specifically targeted with folate-linked drugs in vivo. […] (The BM model is widely regarded to be helpful in terms of enabling mechanistic investigations relevant to fibrogenesis in an in vivo context.)\nMore specifically, eight-week-old C57BL6 male mice from Charles River (average weight 22 g to 25 g) were housed under pathogen-free conditions at room temperature (22° C.) under a 12 hours light-dark cycle. Mice were placed on a folate deficient chow (Envigo Teklad Global Rat Food Pellets) for 1 week prior to the BM or PBS instillation. Fresh water and folate-deficient diet were freely available. All animal procedures were approved by the Purdue Animal Care and Use Committee in accordance with National Institute of Health guidelines.\nThereafter, the mice were anesthetized with ketamine/xylazine and the necks of the mice were shaved using hair remover lotion and then sterilized with 70% alcohol. A small incision was made on the neck to visualize the trachea. Mice were positioned at a 75-degree angle and injected intratracheally with 100 μL sterile PBS or BM (Cayman Chemicals, Ann Arbor, MI; #13877) dissolved in PBS (0.75 mg/kg) using a 1 cc syringe with 26 G needle. Body weights were monitored every other day throughout the experiment.\nLobes of the right lung collected above were weighed, placed in a pressure-tight vial (Supelco Inc., Bellefonte, PA; #27003), and hydrolyzed with 6N HCl (10 ml/g, v/w) in a sand bath at 120° C. for 3.5 hours. The hydrolyzed solution was cooled at 4° C. for 15 min and transferred to a 1.5 ml Eppendorf tube prior to centrifugation at 12,000 rcf for 15 min at 4° C. Supernatant was carefully collected, aliquoted and used for hydroxyproline (HYP) analysis.\nFor the subsequent HYP analysis, 10 μl of sample was transferred into a 96-well plate and neutralized with 10 μl of 5.3 M sodium hydroxide solution. Isopropanol (40 μl) was then added to each well followed by 20 μl of oxidation buffer and the mixture was incubated on a shaker at room temperature for 5 min. Analytical reagent (260 μl) was added, and the plate was incubated on a shaker at room temperature for 30 seconds and incubated immediately at 60° C. for 25 min. The absorbance was measured at 560 nm (A560) within 15 min. All reagents were prepared according to a previously reported protocol.\nFor histological analysis of the lung sections, fixed lungs (see above) were embedded in paraffin, sectioned and stained with hematoxylin-eosin (H&E), Masson's trichrome or F3 (anti-mouse FRβ antibody). Tissue sections were examined in a blinded manner by a licensed pathologist. More than 90×10^6 cells were quantified per section using Aperio-Image Scope (Leica Biosystems, Wetzlar, DE).\nFor this, BM-treated mice were intravenously injected every other day beginning on day 10 with either vehicle (3% DMSO in PBS) or Compound 1B (see FIG. 8A). […] In BM-induced experimental pulmonary fibrosis in mice, inflammation is known to persist for about 9-10 days after BM installation. Because, inflammation to fibrosis switch happens in this model approximately day 9 to day 14, and profibrotic markers start appearing at about day 10, dosing began on day 10 (FIG. 8A).\nTwo doses were given every other day till day 21. The individual doses on a day are separated by 6 hours to prevent any “tolerance” to TLR agonists. Mice were then sacrificed on day 21 and subjected immediately to bronchoalveolar lavage followed by resection of the lungs for immunohistochemistry and quantitation of collagen and hydroxyproline."}, "healthy mice": {"tested_on": "healthy mice", "test": "Plasma cytokine levels in healthy mice after tail vein injection", "assay_type": "in vivo", "procedure": "(FIGS. 20A-C) Measurement of plasma IL-6 (FIG. 20A), IFNα (FIG. 20B) and TNFα (FIG. 20C) (n=3). (FIGS. 20D-F). The effect of drug concentration on plasma levels of IL-6 (FIG. 20D), IFNα (FIG. 20E), and TNFα (FIG. 20F) was determined at 1.5 h, 1 h, or 1 h after treatment, respectively (n=2) (FIG. 20G)."}},
  "data": [
    {"smiles": "CCCCc1nc2c(N)nc3ccccc3c2n1CC(C)(C)OC(=O)OCCSSCC(NC(=O)CCC(NC(=O)c1ccc(NCc2cnc3nc(N)[nH]c(=O)c3n2)cc1)C(=O)O)C(=O)O", "note": "(stereo not shown) [Compound 1B]", "values": [
      {"measurement": "lung histology with increasing dose", "setting": "[1]; 1, 3, 10 nmol", "value": "lung histology improved"},
      {"measurement": "order of efficacy on lung hydroxyproline content", "setting": "[1]; day 21", "value": "10 nmol/mouse>3 nmol/mouse>1 nmol/mouse>0 nmol/mouse"},
      {"measurement": "anti-fibrotic response, lung sections stained DAPI, anti-F4/80, anti-CD206", "setting": "[1]; differences between treated groups", "value": "robust anti-fibrotic response"},
      {"measurement": "collagen stain, Masson's trichrome", "setting": "[1]; tail vein injection", "value": "strongly suppressed"},
      {"measurement": "lung histology, H&E staining", "setting": "[1]; treated beginning on day 10", "value": "lung architecture that resembles that of healthy mice"},
      {"measurement": "systemic cytokine release (plasma IL-6, IFNα, TNFα)", "setting": "healthy mice; 10 nmol tail vein", "value": "does not"},
      {"measurement": "inflammatory cytokine release, dose comparison", "setting": "healthy mice; effect of drug concentration", "value": "stimulates less inflammatory cytokine release than half the dose of Compound 1A"}
    ]}
  ]
}
